Measurements from ChEMBL document CHEMBL1121777, “Synthesis and antidepressant activity of substituted (omega-aminoalkoxy)benzene derivatives” (J Med Chem, 1981).
Converted amounts (≈) assume the structure as drawn.

Key:
[1] = species: Mus musculus; assay: Ability to prevent the reserpine induced hypothermia in mice relative to amitriptyline; format: functional
[2] = Toxicity was measured as LD50,po; format: organism-based; conditions: mouse, in vivo
[3] = species: Cavia porcellus; assay: Concentration required to reducing the histamine induced contraction by 50% was measured; format: functional
[4] = test system: Mus musculus; assay: Muscle relaxant effect was measured as ED50 which is the dose that causes muscle relaxation in 50% of the mice, po; format: functional
[5] = test system: Mus musculus; assay: Antiphysostigmine effect was measured as ED50,po; format: functional
[6] = test system: Rattus norvegicus; assay: Antimuricide effect was observed in the olfactory bulb removed rats; antimuricide effect at 30 mg/kg; + = 31 - 50%; format: functional
[7] = species: Mus musculus; assay: The compound was tested for it's ability to reverse the reserpine induced hypothermia in mice; format: functional
[8] = test system: Rattus norvegicus; assay: Antimuricide effect was observed in the olfactory bulb removed rats; antimuricide effect at 30 mg/kg; ++ = 51-70%; format: functional
[9] = test system: Mus musculus; assay: The compound was tested for it's ability to reverse the reserpine induced hypothermia in mice, po; format: functional
[10] = test system: Rattus norvegicus; assay: Antimuricide effect was observed in the olfactory bulb removed rats; antimuricide effect at 30 mg/kg; ++ = 51 - 70%; format: functional
[11] = species: Mus musculus; assay: The compound was tested for it's ability to prevent the reserpine induced hypothermia in mice; format: functional
[12] = test system: Rattus norvegicus; assay: Antimuricide effect was observed in the olfactory bulb removed rats; antimuricide effect at 30 mg/kg; + = 31-50%; format: functional

Row | SMILES | Relative potency [1] | other results
1 | CNCCOc1ccccc1Cc1ccccc1.Cl | 0 | 
2 | CN(C)CCCCOc1ccccc1Sc1ccccc1.Cl | 0.7 | 
3 | CN(C)CCC=C1c2ccccc2CCc2ccccc21 [AMITRIPTYLINE] | 5.8 | LD50 [2]: 300 mg/kg; IC50 [3]: 0.0083 µg/mL (≈ 0.0299 µM); ED50 [4]: 40 mg/kg; ED50 [5]: 35 mg/kg; Effect [6]: 31%
4 | CNCCCCOc1ccccc1Cc1ccccc1.Cl | 0.78 | LD50 [2]: 1000 mg/kg; ED10 [7]: 12.5 mg/kg; IC50 [3]: 1.1 µg/mL; ED50 [4]: > 200 mg/kg; ED50 [5]: > 200 mg/kg
5 | CN(C)CCCCOc1ccccc1Cc1ccccc1O.Cl | 0.77 | 
6 | CNCCCCOc1ccccc1Oc1ccccc1.Cl | 1.1 | LD50 [2]: 600 mg/kg; IC50 [3]: 1.6 µg/mL; Effect [8]: 51%; ED50 [4]: > 200 mg/kg; ED50 [5]: > 200 mg/kg; ED10 [9]: 8.8 mg/kg
7 | CN(C)CCCCOc1ccccc1Oc1ccccc1.Cl | 0.58 | 
8 | CN(C)CCCCOc1ccc(Cl)cc1Cc1ccccc1.Cl | 0.26 | 
9 | CN(C)CCCCOc1ccccc1Cl.Cl | 0.47 | 
10 | Cc1ccc(Cc2ccccc2OCCCCN(C)C)cc1.Cl | 0.18 | 
11 | CNCCCCOc1ccccc1C(C)c1ccccc1.Cl (stereo not given) | 0.66 | 
12 | CNCCCCOc1ccccc1Cc1ccc(C)cc1.Cl | 0.44 | 
13 | CN(C)CCOc1ccccc1Cc1ccccc1.Cl | 0 | IC50 [3]: 0.001 µg/mL
14 | CNCCCCOc1ccccc1CCc1ccccc1.Cl | 0 | 
15 | COc1ccc(Cc2ccccc2OCCCCN(C)C)cc1.Cl | 0 | 
16 | CNCCCCOc1ccc(Cc2ccccc2)cc1.Cl | 0 | 
17 | CNCCCCOc1ccc(O)cc1Cc1ccccc1.Cl | 0.31 | 
18 | CN(C)CCCOc1ccccc1Cc1ccccc1.Cl | 0 | 
19 | CNCCCCOc1ccccc1Cc1ccccc1O.Cl | 0.99 | Effect [10]: 51%; LD50 [2]: 750 mg/kg; ED10 [7]: 15 mg/kg; IC50 [3]: 2.5 µg/mL; ED50 [4]: > 200 mg/kg; ED50 [5]: > 200 mg/kg
20 | CNCCCCOc1ccccc1[S+]([O-])c1ccccc1.Cl (stereo not given) | 0.49 | 
21 | CNCCCCOc1ccccc1Nc1ccccc1.Cl |  | Relative potency [11]: 0.29
22 | CNCCCCOc1ccccc1Sc1ccccc1.Cl | 0.89 | LD50 [2]: 980 mg/kg; IC50 [3]: 2.2 µg/mL; ED50 [4]: > 200 mg/kg; ED50 [5]: > 200 mg/kg; ED10 [9]: 15 mg/kg; Effect [12]: 31%
23 | CNCCCCCOc1ccccc1Cc1ccccc1.Cl | 0.57 | 
24 | CNCCCCOc1ccccc1C(=O)Nc1ccccc1.Cl | 0.36 | 

Row | SMILES | Relative potency [1] | other results
25 | CNCCCCOc1ccccc1S(=O)(=O)c1ccccc1.Cl | 0.17 | 
26 | Cl.NCCCCOc1ccccc1Cc1ccccc1 | 0 | 
27 | CNCCCCOc1ccccc1OCc1ccccc1.Cl | 0 | 
28 | CC(c1ccccc1)c1ccccc1OCCCCN(C)C.Cl (stereo not given) | 0.36 | 
29 | CNCCCCOc1ccccc1C(O)c1ccccc1.Cl (stereo not given) | 0 | 
30 | CNCCCCOc1ccccc1Cc1ccc(Cl)cc1.Cl | 0.27 | 
31 | CNCCCCOc1ccccc1Cc1ccc(OC)cc1.Cl | 0 | 
32 | CCOc1ccccc1OCCCCNC.Cl | 0 | 
33 | CNCCCCOc1ccc(Cl)cc1Cc1ccccc1.Cl | 0.17 | 
34 | CCNCCCOc1ccccc1Cc1ccccc1.Cl | 0 | 
35 | CN(C)CCCCOc1ccccc1Cc1ccccc1.Cl | 0 | 
36 | Cl.c1ccc(Cc2ccccc2OCCCCN2CCCCC2)cc1 | 0.41 | 
37 | CNCCCCOc1ccccc1Cc1ccccc1OC.Cl | 0.85 | 
38 | CNCCCCOc1ccccc1C(=O)c1ccccc1.Cl | 0 | 
39 | CN(C)CCCCOc1ccccc1Cc1ccc(Cl)cc1.Cl | 0.17 | 
40 | CNCCCCOc1ccc(OC)cc1.Cl | 0 | 
41 | Cl.c1ccc(Cc2ccccc2OCCCCN2CCOCC2)cc1 | 0.3 | 
42 | CNCCCCOc1ccccc1C1CCCCC1.Cl | 0.28 | 
43 | CN1CCN(CCCCOc2ccccc2Cc2ccccc2)CC1.Cl | 0 | 
44 | CN(C)CCCCCOc1ccccc1Cc1ccccc1.Cl | 0.23 | 
45 | CCNCCCCOc1ccccc1Cc1ccccc1.Cl | 0.53 | 
46 | Cc1cccc(Cc2ccccc2)c1OCCCCN(C)C.Cl | 0.66 | 
47 | CN(C)CCCN1c2ccccc2CCc2ccccc21 [IMIPRAMINE] |  | IC50 [3]: 0.032 µg/mL (≈ 0.114 µM); ED50 [4]: 190 mg/kg; ED50 [5]: 120 mg/kg; Effect [6]: 31%
48 | CNCCCCOc1ccccc1Cl.Cl | 0 | 
